Experiment [1] has as its target recombinant human Mcl-1 (residues 171-327) / Bim interaction (Homo sapiens (Human), UniProt Q07820). As to the kind of experiment: biochemical. The class given is binding. To be noted: read-out: Mcl-1 HTRF IC50.
In experiment [2] the test system is human multiple myeloma cell line, OPM-2. As to the kind of experiment: Cell viability assay (OPM-2 10 FBS), CellTiter-Glo. It counts as cell-based. The method in brief: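 3000 cells/well, RPMI 1640 + 10% FBS; serial compound dilutions, 16 h, 37 °C/5% CO2.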
[3] abbreviates: TR-FRET, Mcl-1(171-327) / biotin-Bim (51-76).
The mark [4] stands for this setting: Homo sapiens, OPM-2, 16 h, read-out: OPM-2 10% FBS IC50 IP, OPM-2 cells, 10% FBS, 16 h, CellTiter-Glo.
The mark [5] stands for this setting: 0.1 nM Mcl-1(171-327), 0.05 nM biotin-Bim (51-76).
Setting [6] is: read-out: OPM-2 10% FBS IC50 IP, OPM-2 cells, 10% FBS, 16 h incubation.
The mark [7] stands for this setting: Homo sapiens, OPM-2, 16 h, read-out: OPM-2 10% FBS IC50 IP, OPM-2 cells, 10% FBS, 16 h incubation.
Where [8] appears, read: read-out: OPM-2 10% FBS IC50 IP, OPM-2 cells, 10% FBS, 16 h, CellTiter-Glo.

Molecules are shown by their SMILES. Read-outs that look alike come from different tables or passages of the source.

Sequence of recombinant human Mcl-1 (residues 171-327) / Bim interaction (Q07820 171-327): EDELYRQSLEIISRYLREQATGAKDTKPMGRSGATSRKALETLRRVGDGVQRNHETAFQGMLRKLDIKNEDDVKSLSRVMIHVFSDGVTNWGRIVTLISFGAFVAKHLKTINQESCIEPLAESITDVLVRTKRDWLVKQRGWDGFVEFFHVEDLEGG

The IC50 is the concentration at which inhibition is half-maximal. `Cc1onc(C[C@@]2(O)/C=C/C[C@H](C)[C@@H](C)S(=O)(=O)NC(=O)c3ccc4c(c3)N(C[C@@H]3CC[C@H]32)C[C@@]2(CCCc3cc(Cl)ccc32)CO4)c1C` [Example 100573, (1S,3′R,6′R,7′R,8′E,11′S,12′R)-6-chloro-7′-((4,5-dimethyl-1,2-oxazol-3-yl)methyl)-7′-hydroxy-11′,12′-dimethyl-3,4-dihydro-2H,15′H-spiro[naphthalene-1,22′-[20]oxa[13]thia[1,14]diazatetracyclo [14.7.2.0~3,6~.0~19,24~]pentacosa[8,16,18,24]tetraen]-15′-one 13′,13′-dioxide]: the IC50 amounted to 2.07 nM in experiment [1] (setting [3]) and 7390 nM in experiment [2] (setting [4]).

With `CO[C@]1(CCN2CC(C)(N(C)C)C2)/C=C/C[C@H](C)[C@@H](C)S(=O)(=O)NC(=O)c2ccc3c(c2)N(C[C@@H]2CC[C@H]21)C[C@@]1(CCCc2cc(Cl)ccc21)CO3` [Example 100453, (1S,3′R,6′R,7′R,8′E,11′S,12′R)-6-chloro-7′-(2-(3-(dimethylamino)-3-methyl-1-azetidinyl)ethyl)-7′-methoxy-11′,12′-dimethyl-3,4-dihydro-2H,15′H-spiro[naphthalene-1,22′-[20]oxa[13]thia[1,14]diazatetracyclo [14.7.2.0~3,6~.0~19,24~]pentacosa[8,16,18,24]tetraen]-15′-one 13′,13′-dioxide], the IC50 is 0.927 nM in experiment [1] (setting [3]) and 2930 nM in experiment [2] (setting [4]).

As for `CC[C@@H]1CC/C=C/[C@](C=O)(OC)[C@@H]2CC[C@H]2CN2C[C@@]3(CCCc4cc(Cl)ccc43)COc3ccc(cc32)C(=O)NS1(=O)=O` (single isomer, unassigned) [Example 100580], the IC50 worked out at 0.877 nM in experiment [1] (setting [3]) and 6580 nM in experiment [2] (setting [4]).

`C[C@@H]1[C@@H](C)CCC[C@@](O)(C2SCCCS2)[C@@H]2CC[C@H]2CN2C[C@@]3(CCCc4cc(Cl)ccc43)COc3ccc(cc32)C(=O)NS1(=O)=O` [Example 100238, (1S,3′R,6′R,7′S,11′S,12′R)-6-chloro-7′-(1,3-dithian-2-yl)-7′-hydroxy-11′,12′-dimethyl-3,4-dihydro-2H,15′H-spiro[naphthalene-1,22′-[20]oxa[13]thia[1,14]diazatetracyclo [14.7.2.0~3,6~.0~19,24~]pentacosa[16,18,24]trien]-15′-one 13′,13′-dioxide]: the results for the IC50 in experiment [1] (setting [3]) and in experiment [2] (setting [4]) were 0.474 nM and 747 nM, respectively.

As to `C[C@@H]1[C@@H](C)CCC[C@]2(OC[C@@H](N(C)C)CO2)[C@@H]2CC[C@H]2CN2C[C@@]3(CCCc4cc(Cl)ccc43)COc3ccc(cc32)C(=O)NS1(=O)=O` [Example 100227], the IC50 in experiment [1] (setting [3]) is 0.423 nM; in experiment [2] (setting [4]), 191 nM.

Turning to `CO[C@]1(CN2CCN3CC[C@H](F)C[C@@H]3C2)/C=C/C[C@H](C)[C@@H](C)S(=O)(=O)NC(=O)c2ccc3c(c2)N(C[C@@H]2CC[C@H]21)C[C@@]1(CCCc2cc(Cl)ccc21)CO3` (single isomer, unassigned) [Example 325], the IC50 in experiment [1] (setting [5]) is 0.18 nM; in experiment [2] (setting [6]) it was 192 nM.

Take `CO[C@@]1(CN2CCn3nncc3C2)/C=C/C[C@H](C)[C@@H](C)S(=O)(=O)NC(=O)c2ccc3c(c2)N(C[C@@H]2CC[C@H]21)C[C@@]1(CCCc2cc(Cl)ccc21)CO3` [Example 207, (1S,3′R,6′R,7′S,8′E,11′S,12′R)-6-chloro-7′-(6,7-dihydro[1,2,3]triazolo[1,5-a]pyrazin-5(4H)-ylmethyl)-7′-methoxy-11′,12′-dimethyl-3,4-dihydro-2H,15′H-spiro[naphthalene-1,22′-[20]oxa[13]thia[1,14]diazatetracyclo [14.7.2.0~3,6~.0~19,24~]pentacosa[8,16,18,24]tetraen]-15′-one 13′,13′-dioxide]: the IC50 in experiment [1] (setting [5]) is 0.137 nM; in experiment [2] (setting [7]), 395 nM.

For `C[C@@H]1[C@@H](C)CCC[C@](O)([C@@H](C)C(=O)N(C)C)[C@@H]2CC[C@H]2CN2C[C@@]3(CCCc4cc(Cl)ccc43)COc3ccc(cc32)C(=O)NS1(=O)=O` (single isomer, unassigned) [Example 100118], the IC50 in experiment [1] (setting [3]) was determined as 4.44 nM; in experiment [2] (setting [8]), 3950 nM.

For `COCCN(C)C(=O)C[C@]1(O)CCC[C@H](C)[C@@H](C)S(=O)(=O)NC(=O)c2ccc3c(c2)N(C[C@@H]2CC[C@H]21)C[C@@]1(CCCc2cc(Cl)ccc21)CO3` [Example 100140, 2-((1S,3′R,6′R,7′R,11′S,12′R)-6-chloro-7′-hydroxy-11′,12′-dimethyl-13′,13′-dioxido-15′-oxo-3,4-dihydro-2H-spiro[naphthalene-1,22′-[20]oxa[13]thia[1,14]diazatetracyclo [14.7.2.0~3,6~.0~19,24~]pentacosa[16,18,24]trien]-7′-yl)-N-(2-methoxyethyl)-N-methylacetamide], the IC50 in experiment [1] (setting [3]) worked out at 0.486 nM; in experiment [2] (setting [8]), 299 nM.

As for `C[C@@H]1[C@@H](C)CCC[C@@](O)(C#CCN2CCOCC2)[C@@H]2CC[C@H]2CN2C[C@@]3(CCCc4cc(Cl)ccc43)COc3ccc(cc32)C(=O)NS1(=O)=O` [Example 100354, (1S,3′R,6′R,7′S,11′S,12′R)-6-chloro-7′-hydroxy-11′,12′-dimethyl-7′-(3-(4-morpholinyl)-1-propyn-1-yl)-3,4-dihydro-2H,15′H-spiro[naphthalene-1,22′-[20]oxa[13]thia[1,14]diazatetracyclo [14.7.2.0~3,6~.0~19,24~]pentacosa[16,18,24]trien]-15′-one 13′,13′-dioxide], the IC50 in experiment [1] (setting [3]) stood at 0.109 nM; in experiment [2] (setting [4]), 147 nM.

As to `CO[C@]1(CN2CCN(CCF)CC2)/C=C/C[C@H](C)[C@@H](C)S(=O)(=O)NC(=O)c2ccc3c(c2)N(C[C@@H]2CC[C@H]21)C[C@@]1(CCCc2cc(Cl)ccc21)CO3` [Example 96, (1S,3′R,6′R,7′R,8′E,11′S,12′R)-6-chloro-7′-((4-(2-fluoroethyl)-1-piperazinyl)methyl)-7′-methoxy-11′,12′-dimethyl-3,4-dihydro-2H,15′H-spiro[naphthalene-1,22′-[20]oxa[13]thia[1,14]diazatetracyclo [14.7.2.0~3,6~.0~19,24~]pentacosa[8,16,18,24]tetraen]-15′-one 13′,13′-dioxide], the IC50 in experiment [1] (setting [5]) worked out at 0.114 nM; in experiment [2] (setting [7]) it was 111 nM.

In the case of `C[C@@H]1[C@@H](C)C/C=C/[C@](O)(Cc2ccnc(C#N)c2)[C@@H]2CC[C@H]2CN2C[C@@]3(CCCc4cc(Cl)ccc43)COc3ccc(cc32)C(=O)NS1(=O)=O` [Example 100188, 4-(((1S,3′R,6′R,7′R,8′E,11′S,12′R)-6-chloro-7′-hydroxy-11′,12′-dimethyl-13′,13′-dioxido-15′-oxo-3,4-dihydro-2H-spiro[naphthalene-1,22′-[20]oxa[13]thia[1,14]diazatetracyclo [14.7.2.0~3,6~.0~19,24~]pentacosa[8,16,18,24]tetraen]-7′-yl)methyl)-2-pyridinecarbonitrile], the results for the IC50 in experiment [1] (setting [3]) and in experiment [2] (setting [8]) were 0.877 nM and 735 nM, respectively.

As to `C[C@@H]1[C@@H](C)C/C=C/[C@](O)(c2cccnc2F)[C@@H]2CC[C@H]2CN2C[C@@]3(CCCc4cc(Cl)ccc43)COc3ccc(cc32)C(=O)NS1(=O)=O` (single isomer, unassigned) [Example 100313], the IC50 in experiment [1] (setting [3]) turned out to be 0.129 nM; in experiment [2] (setting [8]), 143 nM.

`C[C@@H]1[C@@H](C)C/C=C/[C@@](O)(CC(=O)N2CCCC2)[C@@H]2CC[C@H]2CN2C[C@@]3(CCCc4cc(Cl)ccc43)COc3ccc(cc32)C(=O)NS1(=O)=O` [Example 100253, (1S,3′R,6′R,7′S,8′E,11′S,12′R)-6-chloro-7′-hydroxy-11′,12′-dimethyl-7′-(2-oxo-2-(1-pyrrolidinyl)ethyl)-3,4-dihydro-2H,15′H-spiro[naphthalene-1,22′-[20]oxa[13]thia[1,14]diazatetracyclo [14.7.2.0~3,6~.0~19,24~]pentacosa[8,16,18,24]tetraen]-15′-one 13′,13′-dioxide]: the IC50 in experiment [1] (setting [3]) was 0.149 nM; in experiment [2] (setting [8]) it was 544 nM.

Consider `C[C@@H]1[C@@H](C)C/C=C/[C@@](O)(C[S@@+](C)[O-])[C@@H]2CC[C@H]2CN2C[C@@]3(CCCc4cc(Cl)ccc43)COc3ccc(cc32)C(=O)NS1(=O)=O` (stereo in doubt) [Example 100074], for which the IC50 in experiment [1] (setting [3]) amounted to 0.731 nM; in experiment [2] (setting [4]) it was 3020 nM.

Regarding `CO[C@@]1(CN2CCN3CC[C@H](F)C[C@@H]3C2)/C=C/C[C@H](C)[C@@H](C)S(=O)(=O)NC(=O)c2ccc3c(c2)N(C[C@@H]2CC[C@H]21)C[C@@]1(CCCc2cc(Cl)ccc21)CO3` (single isomer, unassigned) [Example 284], the IC50 in experiment [1] (setting [5]) was 0.288 nM; in experiment [2] (setting [6]), 230 nM.

In the case of `CO[C@@]1(CN2CCC3(CC2)COC3)/C=C/C[C@H](C)[C@@H](C)S(=O)(=O)NC(=O)c2ccc3c(c2)N(C[C@@H]2CC[C@H]21)C[C@@]1(CCCc2cc(Cl)ccc21)CO3` [Example 267, (1S,3′R,6′R,7′S,8′E,11′S,12′R)-6-chloro-7′-methoxy-11′,12′-dimethyl-7′-(2-oxa-7-azaspiro[3.5]non-7-ylmethyl)-3,4-dihydro-2H,15′H-spiro[naphthalene-1,22′-[20]oxa[13]thia[1,14]diazatetracyclo [14.7.2.0~3,6~.0~19,24~]pentacosa[8,16,18,24]tetraen]-15′-one 13′,13′-dioxide], the IC50 turned out to be 0.297 nM in experiment [1] (setting [5]) and 250 nM in experiment [2] (setting [7]).

These data come from US10821115B2, “Compounds that inhibit Mcl-1 protein” (priority 2017, dated 2020).
